According to patent publication US10975123B2, “Mutant Akt-specific capture agents, compositions, and methods of using and making” (California Institute of Technology, priority 2014, dated 2021):
“Also recorded” adds a separate entry of the source. Where a SMILES comes first, the peptide text is derived from it. Bridges are numbered along the chain shown (N, C = ends). Roman numbers before positions name the chains, in order. Triazole bridges read from a SMILES are 1,4-linked. Where no end group is shown, it is not given here. [ ]: non-standard residue; d: D form. The star is where a group is joined. Biotin = O=C1N[C@H]2[C@H](CS[C@H]2CCCCC(=O)*)N1; Lys(N3) = [N-]=[N+]=NCCCC[C@H](N)C(=O)O; PEG6 = NCCOCCOCCOCCOCCOCCOCCC(=O)O; dPra = C#CC[C@@H](N)C(=O)O

Columns and labels:
[1] = target: T1, E17K GST-PH Domain (E17K Akt1) (Homo sapiens, UniProt P31749, E17K); assay: Full curve ELISA, immobilized ligand, E17K protein; type: binding; conditions: in words
T1 construct: The first 124 N-terminal amino acids from full length Akt1 were used as the PH Domain DNA; GST (N); thrombin cleavage site (C); 6His (C); made in house; host or cells: E. coli BL21-DE3-pLys
Method: The full curve ELISAs were obtained using streptavidin coated ELISA plates (Pierce). The ligands—anchor, biligand, triligand and “eflya” scrambled anchor peptide blank—were laid down at a concentration of 1 μM for one hour. Two lanes of each ligand were used on the plate for both proteins—WT and E17K GST-PH Domain. The plates were blocked with 5% BSA for two hours. Dilutions of both WT and E17K GST-PH Domain proteins were made in 0.5% BSA in 1×TBS starting from 1 μM-0.5 nM by serially diluting 1:2 down a series of 8 samples. For each ligand, a no protein blank was also used. The proteins were incubated with the blocked plate for one hour, washed 3× with 1×TBST+0.5% BSA and tapped dry, then detected with a 1:10,000 dilution of an HRP conjugated anti-GST pAb. The plate was again washed 3× with 1×TBST and tapped dry. It was developed with a 1:1 solution of TMB substrate and development was stopped with 1M H2SO4 and read on a plate reader.

[2] = target: T2, WT GST-PH Domain (Akt1) (Homo sapiens, UniProt P31749); assay: Full curve ELISA, immobilized ligand, WT protein; type: binding; conditions: in words
T2 construct: The first 124 N-terminal amino acids from full length Akt1 were used as the PH Domain DNA; GST (N); thrombin cleavage site (C); 6His (C); made in house; host or cells: E. coli BL21-DE3-pLys
Method: The full curve ELISAs were obtained using streptavidin coated ELISA plates (Pierce). The ligands—anchor, biligand, triligand and “eflya” scrambled anchor peptide blank—were laid down at a concentration of 1 μM for one hour. Two lanes of each ligand were used on the plate for both proteins—WT and E17K GST-PH Domain. The plates were blocked with 5% BSA for two hours. Dilutions of both WT and E17K GST-PH Domain proteins were made in 0.5% BSA in 1×TBS starting from 1 μM-0.5 nM by serially diluting 1:2 down a series of 8 samples. For each ligand, a no protein blank was also used. The proteins were incubated with the blocked plate for one hour, washed 3× with 1×TBST+0.5% BSA and tapped dry, then detected with a 1:10,000 dilution of an HRP conjugated anti-GST pAb. The plate was again washed 3× with 1×TBST and tapped dry. It was developed with a 1:1 solution of TMB substrate and development was stopped with 1M H2SO4 and read on a plate reader. The curves in FIG. 4B were plotted by normalizing the signal by the blank wells, and were fitted to a Hill function in GraphPad using a common saturation and slope (Bmax=1.466+/−0.03, h=0.7383+/−0.025).

[3] = target: T3, E17K PH Domain binding to PIP3 (Homo sapiens, UniProt P31749, E17K); assay: PIP3 agarose inhibition assay, E17K; type: biochemical; conditions: ligand 2.38 μM (10x protein), protein 234 nM, western blot, in words
T3 construct: 2 μg of either wildtype or mutant PH Domain-GFP protein (234 nM); made in house; host or cells: HEK-293-6E (used as cell lysate, not purified)
From the text: The yleaf ligand, the biligand, and the triligand were all tested for their ability to block the E17K PHD binding with PIP3. For this test, PIP3-coated resin (Echelon Biosciences) was used to mimic the PHD interaction with the cell membrane, and could be used to bind the protein as in an immunoprecipitation assay^22. The presence of an effective blocking compound would reduce the ability of the resin to capture the protein, and would thus appear as a diminished signal in the corresponding western blot assay. A control lane containing no capture agent was used to show baseline binding of the protein to the PIP3 resin. […] In an expanded study, we compared the amount of E17K and WT PH domain binding relative to the amount of added triligand (FIG. 5e).
PIP3 Agarose beads (Echelon) were used to detect for the inhibition of PH Domain binding to its substrate, PIP3, upon incubation with the anchor candidate peptide ligands. To test the inhibition of each of the ligands, anchor biligand and triligand, 20 μL of resin slurry was added to each of four tubes and washed three times with 1×TBS. Protein, 2 μg (234 nM) of E17K mutant, was preincubated for one hour at room temperature with either DMSO (no protein blank), anchor, biligand or triligand at 2.38 μM (10× in relation to protein) in 200 μL of 1×TBS. For the control, mutant PH Domain was incubated with 1×TBS and 1 μL […] to mimic the ligand conditions. These protein samples were then added to PIP3 agarose in a Spin-X tube and incubated at room temperature for two hours. The resin was washed three times with 1×TBS with 0.25% IGEPAL CA-630, spun out to dry completely, then denatured with 50 μL 3×SDS gel loading buffer for 10 min at 95° C. The gel loading buffer was spun out of the resin and detected via western blot as per the Streptavidin-Agarose Pulldowns. Inhibition was indicated by a decrease in the amount of PH Domain that was pulled down by the resin.
Expanded inhibition blots with either WT of E17K mutant protein were performed in a similar fashion. Twelve tubes of 20 μL of PIP3 agarose were washed three times with 1×TBS. 2 μg of either wildtype or mutant PH Domain-GFP protein (234 nM) in 200 uL 1×TBS were preincubated for 30 minutes with differing concentrations of triligand: 0.1 eq (23.4 nM), 1 eq (234 nM), 10 eq (2.34 μM), 100 eq (23.4 μM), and 1000 eq (234 μM). The protein and triligand solutions were then incubated with the PIP3 resin for 2 hours at room temperature. The resins were washed, eluted, and blotted as per all PH Domain western blots.

[4] = target: T4, E17K mutant PH Domain (PHD) of Akt1 (Homo sapiens, UniProt P31749, E17K); assay: Streptavidin-agarose immunoprecipitation (pulldown), E17K; type: binding; conditions: in words
T4 construct: The first 124 N-terminal amino acids from full length Akt1 were used as the PH Domain DNA; made in house; host or cells: E. coli
Method: (§1) Four biligand candidates were chosen based on their hydrophobicity and sequence homology using principal component analysis (FIG. 25). Biligands were synthesized by coupling the 2° ligand onto Rink Amide Resin on the Titan peptide synthesizer. The amide group on the end of the Lys(N3) was capped by shaking the resin with 2 mL acetic anhydride, 2 mL NMP and 0.5 mL DIEA for 3×10 minutes, then washed with NMP. FMOC-Propargylglycine-Otbu (Pra) was clicked onto the Lys(N3) on the 2° ligand by incubating 2 eq of the Pra amino acid with 2 eq CuI and 2 eq ascorbic acid with 1 eq azide on resin in 20% piperidine/NMP for 3 hours. The resin was washed 5×4 mL with a chelating solution of 1 g sodium diethyldithiocarbamate in 20 mL NMP and 1 mL DIEA. The anchor was then built onto the 2° ligand on bead, and an N-terminal PEG5-biotin tag were added. Assays were performed exactly as for the anchor ligands, except for two key differences. The biligand assays were done with 6 ug of GST-tagged PHD protein, instead of the untagged PHD that was used in the anchor pulldowns. The pull-downs were also conducted out of 1% serum in 1×TBS, as opposed to just 1×TBS.
(§2) Pulldown assays were done on Streptavidin Agarose resin from Invitrogen. The resin was incubated with N-terminal biotinylated anchor peptide candidates identified via the ClusterLigand sequence analysis. The anchor candidate coated beads were then incubated with either the wildtype or mutant protein to compare the selectivity of the ligands, as well as the binding ability. The bound protein was eluted and western blotted to compare the amount of protein present for each sample.
(§3) Relative protein band sizes were analyzed to compare binding between the anchor candidates and were used to determine selectivity for either wildtype or mutant PH Domain (FIG. 11). […] Both of these ligands look fairly selective for their respective PH Domain.

[5] = target: T5, wildtype PH Domain (PHD) of Akt1 (Homo sapiens, UniProt P31749); assay: Streptavidin-agarose immunoprecipitation (pulldown), WT; type: binding; conditions: in words
T5 construct: The first 124 N-terminal amino acids from full length Akt1 were used as the PH Domain DNA; made in house; host or cells: E. coli
Method: as §1, §2, §3

[6] = target: T6, E17K 33-mer fragment (6His-tagged) (Homo sapiens, UniProt P31749, E17K/H13K); assay: HPLC-detected immunoprecipitation (pulldown), E17K 33-mer; type: binding; conditions: 50 μM epitope, overnight 4° C., guanidine elution, in words
T6 construct: made in house; host or cells: chemical synthesis (Fmoc SPPS)
T6 sequence (P31749 1-33 H13K/E17K limits assumed): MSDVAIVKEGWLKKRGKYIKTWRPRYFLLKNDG
From the text: The label-modified yleaf (SEQ ID NO: 43) peptide (FIG. 2a and FIG. 12) was subjected to a variety of binding assays against the synthesized WT and E17K 33-mer PHD fragments prepared without the biotin label and alkyne click handle. First, the yleaf (SEQ ID NO: 43) peptide was used in immunoprecipitation assays to pull-down either the WT or E17K mutant 6His-tagged (SEQ ID NO: 4) 33-mer peptide fragments (FIGS. 13 and 14), as opposed to the full-length proteins that were used to initially validate the candidates. Typical immunoprecipitation assays involve western blotting to estimate the amount of protein binding, but 33-mer peptide fragments are not easily quantified on a blot. Because of this, the amount of peptide epitope precipitated in these assays was quantified via injection on an analytical HPLC. These assays further confirmed preferential yleaf (SEQ ID NO: 43) ligand binding to the E17K 33-mer epitope relative to the WT epitope (FIG. 15).
Pulldown assays with the biotinylated anchor and his-tagged 33-mer epitope were performed to verify epitope targeting. […] Because small peptide fragments like the 33-mer epitope are difficult to transfer to and detect on the nitrocellulose membrane as for a traditional Western blot, the amount of binding in these assays was detected via HPLC. […]

[7] = 6 ug GST-tagged PHD, 1% serum in 1xTBS, western blot, listed as yleaf-yksy
[8] = streptavidin agarose, 1xTBS, western blot band size

T5 sequence (P31749 1-124): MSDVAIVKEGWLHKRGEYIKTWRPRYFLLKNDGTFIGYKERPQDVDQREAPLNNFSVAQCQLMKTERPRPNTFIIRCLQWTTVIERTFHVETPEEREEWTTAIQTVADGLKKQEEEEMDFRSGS
T4 sequence (P31749 1-124 E17K): as the sequence (P31749 1-124) above, with E17K counted along it
T3 sequence (P31749 5-108 E17K limits assumed): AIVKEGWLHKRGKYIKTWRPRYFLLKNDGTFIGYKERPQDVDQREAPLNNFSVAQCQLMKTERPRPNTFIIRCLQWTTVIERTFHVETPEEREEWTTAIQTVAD
T2 sequence (P31749 1-124): as the sequence (P31749 1-124) above
T1 sequence (P31749 1-124 E17K): as the sequence (P31749 1-124) above, with E17K counted along it

CC(=O)N[C@@H](CCCCn1cc(C[C@@H](NC(=O)[C@@H](Cc2ccccc2)NC(=O)[C@@H](C)NC(=O)[C@@H](CCC(=O)O)NC(=O)[C@@H](CC(C)C)NC(=O)[C@@H](Cc2ccc(O)cc2)NC(=O)CCOCCOCCOCCOCCOCCOCCNC(=O)CCCC[C@@H]2SC[C@@H]3NC(=O)N[C@@H]32)C(=O)O)nn1)C(=O)N[C@H](Cc1ccc(O)cc1)C(=O)N[C@H](CCCCN)C(=O)N[C@H](CO)C(=O)N[C@H](Cc1ccc(O)cc1)C(N)=O [biligand] (I: {Biotin-PEG6}-[dY][dL][dE][dA][dF][dPra]-OH / II: Ac-[Lys(N3)][dY][dK][dS][dY]-NH2; triazole I:6-II:1) was tested, and the “change in binding affinity for the E17K protein versus the preceding ligand (ELISA)” value [1] was “an increase in affinity for the E17K mutant protein”, the “change in binding affinity for the WT protein versus the preceding ligand (ELISA)” value [2] was “an even larger increase in affinity for the WT protein” and the “inhibition of E17K PH Domain binding to PIP3-coated resin” value [3] was “exhibited the ability to block the PHD-PIP3 interaction”. The “inhibition of E17K PH Domain binding to PIP3-coated resin” value ([3]; listed as biligand 7) was “decreased binding of the protein”, the “pulldown of E17K GST-PHD by biligand candidates” value [4, 7] was “the greatest signal in binding the E17K protein; also recorded: the highest signal for the E17K protein” and the “pulldown of WT GST-PHD by biligand candidates” value [5, 7] was “the lowest in binding the WT protein; also recorded: the lowest off-target signal to the WT protein”.
With “eefef ([dE][dE][dF][dE][dF]) [off-target control]” the “pulldown of E17K mutant PH Domain by biotinylated anchor candidates” value [4, 8] was “the least pulldown for the mutant protein”, the “pulldown of wildtype PH Domain by biotinylated anchor candidates” value [5, 8] was “the only pulldown of the wildtype protein” and the “amount of E17K 33-mer fragment pulled down (HPLC peak)” value [6] was “much less pull down than the yleaf”.
“iryrn: triligand candidate: biligand yleaf-yksy with tertiary ligand iryrn (SEQ ID NO: 92) (IRYRN)” was tested, and the “change in binding affinity for the E17K protein versus the preceding ligand (ELISA)” value [1] was “a significant improvement on the binding affinity for the E17K protein” and the “change in binding affinity for the WT protein versus the preceding ligand (ELISA)” value [2] was “an even bigger increase for the WT protein”.
